What was measured:
[1] = tested on: extracellular acetylcholine in the cerebral cortex; assay: Amount of extracellular acetylcholine in mouse brain by in vivo microdialysis (Test Example 1); set-up: species or system ddY mouse; conditions: oral 30 mg/kg, FIG. 1
Method: The compound A, B, and C were administered orally to the mouse and the effect on the amount of extracellular acetylcholine in the brain was examined. The brain microdyalysis method using the mouse is proposed as a test for evaluating cognitive dysfunction including Alzheimer type dementia. The brain microdyalysis method is a system that can monitor the variation of extracellular neurotransmitter release in real time at the local parts in the brain while the test animals are moving freely without anesthesia.
(§1) 7-weeks-old male ddY mice were purchased from Japan SLC, Inc. and subjected to the experiment after one week habituation period. The animals were reared in the rearing chamber provided with air conditioner (under the condition that the temperature was 22° C.±1° C., the relative humidity was 50±10%, and the irradiation time was 12 hours (8:00 to 20:00)). The feeding method was that the commercially available MF powdery feed (manufactured by Oriental Yeast Co., ltd.) and tap water were taken freely.
In the two days before the start of the experiment, the fixing operation of the guide cannula for inserting the dialysis probe in the mouse was conducted in advance. Under the deep anesthetized conditions, the guide cannula (depth 4 mm) (manufactured by Eicom Corp.,) was inserted in and fixed on cerebral cortex prefrontal area (which was 1.9 mm forward and 0.5 mm right side from the bregma and to which the depth from cranial surface was 0.8 mm). Buprenorphine (0.01 mg/kg manufactured by Sigma-Aldrich Japan) was administered to the mouse as analgesic after the operation. Each mouse was reared in the separate cage after the operation.
In the step of measuring extracellular acetylcholine in the brain, the dialysis probe (membrane length 3 mm) (manufactured by Eicom Corp.,) was inserted in the guide cannula and the Ringer's solution in the Japanese Pharmacopeia (containing NaCl (147.2 mM), KCl (4.0 mM), and CaCl2 (2.2 mM); manufactured by FUSO CHEMICAL CO., LTD.) was perfused at the flow velocity of 1 μL/min. The sample obtained by the perfusion was collected every 20 minutes and was immediately continuously automatically injected in the high-speed liquid chromatography/electrochemical detector (HPLC/ECD) system (manufactured by Eicom Corp., HTEC-500) together with the internal standard material (isopropylhomocholine, 250 fmol) and acetylcholine was measured under the condition described below.
• Column: Eicompak AC-GEL (2.0 mm; i.d.×150 mm) (manufactured by Eicom Corp.,) • Precolumn: PC-05-03 (3.0 mm; i.d.×40 mm) (manufactured by Eicom Corp.,) • Enzyme-immobilized column: AC-Enzympak (3.0 mm; i.d.) (manufactured by Eicom Corp.,) • Mobile Phase: 50 mM potassium hydrogen carbonate buffer containing 400 mg/L sodium decansulfonic acid and 134 μM EDTA (pH 8.3) • Flow Velocity: 150 μl/min. • Temperature of column: 33° C. • Applied voltage of ECD: +450 mV • Reference electrode: Ag/AgCl electrode • Work electrode: platinum electrode
The compound A prepared according to the procedure described in Manufacturing Example 1 was dissolved in 2.5% DMSO solution in advance to prepare for the test. […] The amount of the extracellular acetylcholine released was measured by the procedure described above in (a) Used animal and Rearing Procedure in real time for 120 minutes after the administration. The mouse in Vehicle group took only 2.5% DMSO solution orally in the same way and the amount of the extracellular acetylcholine was measured. […]

[2] = tested on: mouse reared in long-term isolation; assay: Novel object recognition test in psychiatric disorder model mouse reared in long-term isolation, single oral dose (Test Example 3); type: in vivo, ddY mouse; conditions: tested 24 hours after administration; for exploratory time of the novel object versus Vehicle group: FIG. 3(A)
Method: The action of ameliorating the lowering of the object cognitive function was examined by orally administering the compound A to the mouse reared in long-term isolation. […] In this test, the mouse reared in long-term isolation under the following condition was used as the psychiatric disorder model mouse.
as §1, with “3-weeks-old” for “7-weeks-old”, “Inc.” for “Inc. and subjected to the experiment after one week habituation period.”, “mice” for “animals”, “(Conditions:” for “(under the condition that”
3-weeks-old male ddY mice (n=63) were separately reared in the gray opaque cage (24×17×12 cm) in which the mice could not see the surrounding of the cage for 6 weeks. […] The mice (n=20) collectively reared in a group of 5 mice in the transparent cage (24×17×12 cm) were used as a control group.
Four days prior to the start of the experiment, long-term isolation and group-reared mice were individually acclimated to the test observation box for 10 minutes for three consecutive days. […]
24 hours after the oral administration, the evaluation test for novel object cognitive function was carried out. One object of two objects put in the observation box was replaced with the novel object and the time how long the mouse explored the novel object was measured in the test time of 5 minutes. The object cognitive function of the mouse was evaluated by Discrimination index (%) calculated using the following formula. […]
From the results obtained, the mean (Mean) and the standard error (SEM) were calculated. The significant difference was assessed between the administration group and the control group by using Student's t-test as a method of the statistical processing of the exploratory time and by using Turkey-Kramer's test as a method of the statistical processing of Discrimination index. […]

O=C1CC[C@H](Cc2cc(O)cc(O)c2)O1 [compound A, (R)-5-(3,5-dihydroxyphenyl)-γ-valerolactone]
amount of extracellular acetylcholine in the cerebral cortex versus Vehicle group ([1]; 40 and 60 minutes after the administration): significant increase | amount of extracellular acetylcholine in the cerebral cortex (ratio to basic released amount) ([1]; measured for 120 minutes after administration, compared with before administration): increased | exploratory time of the novel object versus Vehicle group ([2]; oral 10 mg/kg): significantly increased | exploratory time of the novel object versus Vehicle group ([2]; oral 30 mg/kg): significantly increased | Discrimination index ([2]; oral 30 mg/kg, FIG. 3(B)): equal to the score obtained in the group of the mice reared in a group
